Measurements as given in patent US8450461B2, “Risperidone immunoassay” (Saladax Biomedical Inc., priority 2010, dated 2013).

Tests used:
Assay type in all cases: binding, mouse
[1] = tested on: monoclonal antibody to risperidone 4B9-21; test: Indirect competitive microtiter plate immunoassay (ELISA), cross-reactivity, monoclonal antibody 4B9-21; conditions: monoclonal antibody number 4B9-21 (Example 6b); relative to risperidone = 100%
Description: (§1) Mice from example 6a that were immunized with risperidone [9]-KLH prepared in 4 were used to produce monoclonal antibodies. For monoclonal antibodies starting three days before the fusion, the mice were injected i.p. with 400 μg (3 days before fusion), 200 μg (2 days before fusion), and 200 μg (1 day before fusion) of risperidone [9]-KLH in PBS/DMSO prepared in example 4. Spleen cells were isolated from the selected mice and fused with 2×10^7 SP2/0 cells with 50% polyethylene glycol 1500 according to the method of Coligan, J. E. et al., eds., Current Protocols in Immunology, 2.5.1-2.5.8, (1992), Wiley & Sons, NY. The fused cells were plated on ten 96-well plates in DMEM/F12 supplemented with 20% FetalClone I, 2% L-glutamine (100 mM) and 2% 50× HAT. Two to three weeks later, the hybridoma supernatant was assayed for the presence of anti-risperidone antibodies by ELISA (as in example 8b). Cells from the wells that gave positive ELISA results (example 8b) were expanded to 24 well plates. Clones positive by ELISA were subcloned twice by limiting dilution according to the method disclosed in Coligan, J. E. et al., eds., Current Protocols in Immunology, 2.5.8-2.5.17, 1992, Wiley & Sons, NY. Hybridoma culture supernatants containing monoclonal antibody from selected subclones were confirmed for risperidone binding by a competitive ELISA (example 9). […]

[2] = tested on: polyclonal antibodies to risperidone, bleed G2M1; test: Indirect competitive microtiter plate immunoassay (ELISA), cross-reactivity, polyclonal anti-serum bleed G2M1; conditions: polyclonal antibodies (Example 6a), relative to risperidone = 100%
Description: (§2) Ten female BALB/c mice were immunized i.p. with 100 μg/mouse of risperidone [9]-KLH immunogen, as prepared in Example 4, emulsified in Complete Freund's Adjuvant. The mice were boosted once, four weeks after the initial injection with 100 μg/mouse of the same immunogen emulsified in Incomplete Freund's Adjuvant. Twenty days after the boost, test bleeds containing polyclonal antibodies from each mouse were obtained by orbital bleed. The test bleeds were fractionated by centrifugation to yield anti-sera. The anti-sera from these test bleeds, which contain polyclonal antibodies to risperidone [9]-KLH immunogen, were evaluated in Examples 8a and 9.
(§3) The ELISA method for measuring risperidone concentrations was performed in polystyrene microtiter plates (Nunc MaxiSorp F8 Immunomodules) optimized for protein binding and containing 96 wells per plate. Each well was coated with risperidone [9]-BSA conjugate (prepared as in Example 5a) by adding 300 μL of risperidone [9]-BSA conjugate at 10 μg/mL in 0.05M sodium carbonate, pH 9.6, and incubating for three hours at room temperature. The wells were washed with 0.05M sodium carbonate, pH 9.6 and then were blocked with 375 μL of 5% sucrose, 0.2% sodium caseinate solution for 30 minutes at room temperature. After removal of the post-coat solution the plates were dried at 37° C. overnight.
as §3, with “[14]-BSA” for “[9]-BSA”, “5b)” for “5a)”
(§4) This procedure is to find the dilution of antibody or anti-serum to be tested for displacement as in Example 9. The ELISA method for screening risperidone antibodies (produced in Example 6) was performed with the microtiter plates that were sensitized with risperidone-BSA conjugate prepared in Examples 7a and 7b. The antibody screening assay was performed by diluting the murine serum from test bleeds (as in Example 6) containing polyclonal risperidone antibodies to 1:2,000, 1:[…] and 1:54,000 (volume/volume) in phosphate buffered saline containing 0.1% BSA and 0.01% thimerosal. […] (volume/volume) in phosphate buffered saline containing 0.1% BSA and 0.01% thimerosal. […]

[3] = tested on: polyclonal antibodies to risperidone, bleed G1M1; test: Indirect competitive microtiter plate immunoassay (ELISA), cross-reactivity, polyclonal anti-serum bleed G1M1; conditions: polyclonal antibodies (Example 6a), relative to risperidone = 100%
Description: as §2, §3
as §3, with “[14]-BSA” for “[9]-BSA”, “5b)” for “5a)”
as §4

[4] = tested on: polyclonal antibodies to risperidone, bleed G2M5; test: Indirect competitive microtiter plate immunoassay (ELISA), cross-reactivity, polyclonal anti-serum bleed G2M5; conditions: polyclonal antibodies (Example 6a), relative to risperidone = 100%
Description: as §2, §3
as §3, with “[14]-BSA” for “[9]-BSA”, “5b)” for “5a)”
as §4

[5] = tested on: monoclonal antibody to risperidone 5D5-3; test: Indirect competitive microtiter plate immunoassay (ELISA), cross-reactivity, monoclonal antibody 5D5-3; conditions: monoclonal antibody number 5D5-3 (Example 6b); relative to risperidone = 100%
Description: as §1

[6] = tested on: polyclonal antibodies to risperidone, bleed G1M3; test: Indirect competitive microtiter plate immunoassay (ELISA), cross-reactivity, polyclonal anti-serum bleed G1M3; conditions: polyclonal antibodies (Example 6a), relative to risperidone = 100%
Description: as §2, §3
as §3, with “[14]-BSA” for “[9]-BSA”, “5b)” for “5a)”
as §4

[7] = tested on: antibodies to risperidone (pool of antibodies); test: Competitive immunoassay / screening with the pool of antibodies to risperidone
Description: The present invention relates to novel antibodies and monoclonal antibodies to risperidone and paliperidone. The antisera of the invention can be conveniently produced by immunizing host animals with the immunogens of this invention. Suitable host animals include rodents, such as, for example, mice, rats, rabbits, guinea pigs and the like, or higher mammals such as goats, sheep, horses and the like. […]
The ELISA method for determining IC50 values and cross-reactivity was performed with the microtiter plates that were sensitized with risperidone-BSA conjugates as described in Examples 7a and 7b. […] The assays were all performed by diluting the concentration of the anti-sera or monoclonal antibodies in each of the wells to the titer determined in Example 8a. […] Following the incubation for color development, 50 μL of stop solution (1.5% sodium fluoride in di H2O) was added to each well to stop the color development and after 20 seconds of shaking the absorbance was determined at 650 nm (Molecular Devices Plate Reader). The amount of antibody in a well was proportional to the absorbance measured and inversely proportional to the amount of risperidone in the sample. The IC50's of risperidone and paliperidone were determined by constructing dose-response curves with the absorbance in the wells plotted versus analyte concentration in the wells. […]

SMILES: Cc1nc2n(c(=O)c1CCN1CCC(c3noc4cc(F)ccc34)CC1)CC(O)CC2 (stereo not shown) [7-hydroxy-risperidone]
- Cross-reactivity of competitive immunoassay [1]: 30%
- Cross-reactivity of competitive immunoassay [2]: 65%
- Cross-reactivity of competitive immunoassay [3]: 50%
- Cross-reactivity of competitive immunoassay [4]: 69%
- Cross-reactivity of competitive immunoassay [5]: 39%
- Cross-reactivity of competitive immunoassay [6]: 66%

SMILES: Fc1ccc2c(C3CCNCC3)noc2c1 [N-dealkyl-risperidone]
- Cross-reactivity of competitive immunoassay [2]: 0.09%
- Cross-reactivity of competitive immunoassay [3]: 0.02%
- Cross-reactivity of competitive immunoassay [4]: 0.1%
- Cross-reactivity of competitive immunoassay [6]: 0.07%

SMILES: Cc1nc2n(c(=O)c1CCN1CCC(c3noc4cc(F)ccc34)CC1)CCCC2O (stereo not shown) [Paliperidone, paliperidone]
- binding of the antibodies to the compound (screening) ([7]; antibodies from immunized mice screened against the compound): substantial binding
- percent cross-reactivities relative to risperidone ([7]; measured with this pool of antibodies, ratio of IC50 risperidone to IC50 paliperidone): 100±20%
- Cross-reactivity of competitive immunoassay [2]: 98%
- Cross-reactivity of competitive immunoassay [3]: 81%
- Cross-reactivity of competitive immunoassay [4]: 81%
- Cross-reactivity of competitive immunoassay [6]: 80%

SMILES: Cc1nc2n(c(=O)c1CCN1CCC(c3noc4cc(F)ccc34)CC1)CCCC2 [Risperidone, risperidone]
- Cross-reactivity of competitive immunoassay [1]: 100%
- Cross-reactivity of competitive immunoassay [2]: 100%
- Cross-reactivity of competitive immunoassay [3]: 100%
- Cross-reactivity of competitive immunoassay [4]: 100%
- Cross-reactivity of competitive immunoassay [5]: 100%
- Cross-reactivity of competitive immunoassay [6]: 100%
